Test results from patent US20140023656A1, “PHARMACEUTICAL COMPOSITION FOR TREATMENT AND PREVENTION OF TH3 MARCH-RELATED DISEASES” (BioLT CO., LTD., priority 2010, published 2014).

What was measured:
[1] = test system: vulgaris psoriasis; test: Clinical effects in vulgaris psoriasis (Th1 disease/Th3 march); type: in vivo, human; settings: person, oral 75 mg twice per day as polaprezinc, 61 days
Procedure: This example is an example of treatment of Th2 march patient from Th1 disease (psoriasis). (1) For referential example (control experiment), zinc agent (Trade name: Promac) was tried to be administrated to this patient. Since the activated TGF-β1 was as high as 9.3 ng/ml (average value of healthy subjects: 1.1 ng/ml), a novel supplement TgF was administrated to regulate TGF-β1. Thereafter, Promac was orally administrated to the adult twice per day in an amount of 75 mg per one dosage, or 1.6 mg/kg at a time after breakfast and a time before bedtime as polaprezinc. Promac was administrated for 61 days. […] (2) On the other hand, zinc finger/Znf was administrated to the patient for 74 days. This case (vulgaris psoriasis) is a disease presenting hyperkeratosis and is characterized by scale.

[2] = test system: filaggrin (FLG) proteins; test: ELISA measurement of filaggrin (FLG) and filaggrin repair capacity; type: in vivo, human; settings: person, vulgaris psoriasis
Text: A kit for sandwich enzyme immunoassay was used for quantitatively in vitro measuring filaggrin (FLG) proteins (gene related filaggrin) in a tissue homogenate or other body fluids.
Specifically, as for detection strength, measurement was done at a wavelength of 450 nm. Biotin-coupled polyclonal antibody specifically coupled with FLG was used, and the actual measured value of filaggrin (ng/ml frozen serum) was roughly estimated by a standard curve (FIG. 17) previously prepared with FLG standard sample.
Amongst mammal patients (human and dog etc.) having Th3 march/test animals, patients an amount of filaggrin proteins based on filaggrin (FLG) gene which is responsible gene of atopy syndrome (atopy is newly defined as atopy syndrome by the finding of filaggrin) were not detected or were detected in a small amount (deletion or mutation of filaggrin gene) were selected (Th3-FLG).
Subsequently, “zinc finger/Znf” (see Table 5 above) was administrated to the patients etc. (Th3-FLG) in which deletion etc. of filaggrin were confirmed, after which filaggrin repair activity was compared. […]
The filaggrin repair capacity (% of control) by zinc finger/Znf was calculated according to the following formula: […]

[3] = test system: dog rheumatoid arthritis; test: Treatment of dog rheumatoid arthritis (plain x-ray examination, walking); type: in vivo
Text: FIG. 3 is a drawing showing the results of examining characteristic bone resorption in dog rheumatoid arthritis. Th3 march via zinc cell cytokine signal is marching through a route of cell surface BMP and TGF-β1. […] When the healing can be seen thereafter (FIG. 4), bone resorption and bone augmentation are equilibrated. However, TH3 vital reaction is enhanced to clinically induce atopic dermatitiss.
In FIG. 4, according to the finding of the plain x-ray examination, a bone resorption image of arthritis due to rheumatoid arthritis which is Th1 vital reactive disease (pretreatment) is shown. In the right figure of FIG. 4 showing the post-treatment, an improvement image of joint was seen when bone resorption and bone augmentation were balanced. […] According to the finding of post-treatment in the right figure of FIG. 4, incisura trochlearis in the elbow joint was visualized and significant improvement tendency was observed (Evaluation: While the dog before treatment hated going for a walk, the dog could go for a walk (about 5 minutes). It is noted that the standard walking period in the same kind of dog is within 30 minutes).

NCCC(=O)[N-][C@@H](Cc1c[nH]cn1)C(=O)[O-].[Zn+2] [Promac, polaprezinc]
clinical effect [1]: no clinical effect could be recognized
clinical effect ([1]; listed as zinc agent): no effect
filaggrin ([2]; at the time after zinc agent (control experiment)): 0.9 ng/mL
FLA repair ([2]; oral 75 mg twice per day as polaprezinc, 61 days): could not be recognized

B1: IFN-γ: recombinant interferon-gamma used to treat dog rheumatoid arthritis (protein, UniProt P42161 24-166, looked up)
Interferon gamma: QAMFFKEIENLKEYFNASNPDVSDGGSLFVDILKKWREESDKTIIQSQIVSFYLKLFDNFKDNQIIQRSMDTIKEDMLGKFLNSSTSKREDFLKLIQIPVNDLQVQRKAINELIKVMNDLSPRSNLRKRKRSQNLFRGRRASK
walk the dog could go for ([3]; dog after treatment, before treatment hated going for a walk, standard within 30 minutes): about 5 minutes
bone resorption during the course of the treatment ([3]; dog rheumatoid arthritis, FIG. 3): bone resorption is predominant
hyperpermeability image due to invasion around the joint and inflammation of joint ([3]; dog, Th1 arthritis, direct administration of 4MU within the joint, plain x-ray): significantly improved
